{"source": "PubChem BioAssay (NCI)", "assay_in_all_cases": "NCI anticancer screen, dose series, 48 h", "key": {"CAKI-1 renal": {"test_system": "CAKI-1 renal"}, "TK-10 renal": {"test_system": "TK-10 renal"}, "MALME-3M melanoma": {"test_system": "MALME-3M melanoma"}, "A498 renal": {"test_system": "A498 renal"}, "UACC-257 melanoma": {"test_system": "UACC-257 melanoma"}, "U251 CNS": {"test_system": "U251 CNS"}, "SK-MEL-28 melanoma": {"test_system": "SK-MEL-28 melanoma"}, "IGROV1 ovarian": {"test_system": "IGROV1 ovarian"}, "SW-620 colon": {"test_system": "SW-620 colon"}, "MOLT-4 leukemia": {"test_system": "MOLT-4 leukemia"}, "OVCAR-4 ovarian": {"test_system": "OVCAR-4 ovarian"}, "SNB-75 CNS": {"test_system": "SNB-75 CNS"}, "M14 melanoma": {"test_system": "M14 melanoma"}, "DU-145 prostate": {"test_system": "DU-145 prostate"}, "MDA-N": {"test_system": "MDA-N"}, "RXF 393 renal": {"test_system": "RXF 393 renal"}, "SF-268 CNS": {"test_system": "SF-268 CNS"}, "SK-MEL-5 melanoma": {"test_system": "SK-MEL-5 melanoma"}, "HCT-15 colon": {"test_system": "HCT-15 colon"}, "SK-OV-3 ovarian": {"test_system": "SK-OV-3 ovarian"}, "OVCAR-8 ovarian": {"test_system": "OVCAR-8 ovarian"}, "ACHN renal": {"test_system": "ACHN renal"}, "MDA-MB-435": {"test_system": "MDA-MB-435"}, "EKVX NSCLC": {"test_system": "EKVX NSCLC"}, "COLO 205 colon": {"test_system": "COLO 205 colon"}, "NCI-H522 lung": {"test_system": "NCI-H522 lung"}, "SN12C renal": {"test_system": "SN12C renal"}, "SF-539 CNS": {"test_system": "SF-539 CNS"}, "HCC-2998 colon": {"test_system": "HCC-2998 colon"}, "MCF7 breast": {"test_system": "MCF7 breast"}, "NCI-H23 lung": {"test_system": "NCI-H23 lung"}, "SR leukemia": {"test_system": "SR leukemia"}, "LOX IMVI melanoma": {"test_system": "LOX IMVI melanoma"}, "CCRF-CEM leukemia": {"test_system": "CCRF-CEM leukemia"}, "NCI/ADR-RES ovarian": {"test_system": "NCI/ADR-RES ovarian"}, "SK-MEL-2 melanoma": {"test_system": "SK-MEL-2 melanoma"}, "HOP-92 NSCLC": {"test_system": "HOP-92 NSCLC"}, "NCI-H460 lung": {"test_system": "NCI-H460 lung"}, "HCT-116 colon": {"test_system": "HCT-116 colon"}, "OVCAR-3 ovarian": {"test_system": "OVCAR-3 ovarian"}, "MDA-MB-231 breast": {"test_system": "MDA-MB-231 breast"}, "BT-549 breast": {"test_system": "BT-549 breast"}, "HOP-62 NSCLC": {"test_system": "HOP-62 NSCLC"}, "NCI-H226 lung": {"test_system": "NCI-H226 lung"}, "OVCAR-5 ovarian": {"test_system": "OVCAR-5 ovarian"}, "T-47D breast": {"test_system": "T-47D breast"}, "A549 NSCLC": {"test_system": "A549 NSCLC"}, "UO-31 renal": {"test_system": "UO-31 renal"}, "SF-295 CNS": {"test_system": "SF-295 CNS"}, "786-0 renal": {"test_system": "786-0 renal"}, "KM12 colon": {"test_system": "KM12 colon"}, "UACC-62 melanoma": {"test_system": "UACC-62 melanoma"}, "K-562 leukemia": {"test_system": "K-562 leukemia"}, "HT29 colon": {"test_system": "HT29 colon"}}, "note": "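Results reflect a 48-hour exposure of cells in 96-well plates to compound at five concentrations. At the TGI there is no net growth.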", "data": [{"compound": "O=C1C=Cc2c(I)sc(I)c21", "values": [{"measurement": "TGI", "setting": "CAKI-1 renal", "value": 33.3, "unit": "µM"}, {"measurement": "TGI", "setting": "TK-10 renal", "value": 68.5, "unit": "µM"}, {"measurement": "TGI", "setting": "MALME-3M melanoma", "value": 33.4, "unit": "µM"}, {"measurement": "TGI", "setting": "A498 renal", "value": "> 100", "unit": "µM"}, {"measurement": "TGI", "setting": "UACC-257 melanoma", "value": 53.5, "unit": "µM"}, {"measurement": "TGI", "setting": "U251 CNS", "value": 33.3, "unit": "µM"}, {"measurement": "TGI", "setting": "SK-MEL-28 melanoma", "value": 44.6, "unit": "µM"}, {"measurement": "TGI", "setting": "IGROV1 ovarian", "value": 31, "unit": "µM"}, {"measurement": "TGI", "setting": "SW-620 colon", "value": 38.1, "unit": "µM"}, {"measurement": "TGI", "setting": "MOLT-4 leukemia", "value": 42.3, "unit": "µM"}, {"measurement": "TGI", "setting": "OVCAR-4 ovarian", "value": 52.6, "unit": "µM"}, {"measurement": "TGI", "setting": "SNB-75 CNS", "value": 87.4, "unit": "µM"}, {"measurement": "TGI", "setting": "M14 melanoma", "value": 75.8, "unit": "µM"}, {"measurement": "TGI", "setting": "DU-145 prostate", "value": "> 100", "unit": "µM"}, {"measurement": "TGI", "setting": "MDA-N", "value": 87.2, "unit": "µM"}, {"measurement": "TGI", "setting": "RXF 393 renal", "value": 40.3, "unit": "µM"}, {"measurement": "TGI", "setting": "SF-268 CNS", "value": 32.7, "unit": "µM"}, {"measurement": "TGI", "setting": "SK-MEL-5 melanoma", "value": "> 100", "unit": "µM"}, {"measurement": "TGI", "setting": "HCT-15 colon", "value": 34, "unit": "µM"}, {"measurement": "TGI", "setting": "SK-OV-3 ovarian", "value": "> 100", "unit": "µM"}, {"measurement": "TGI", "setting": "OVCAR-8 ovarian", "value": 42.3, "unit": "µM"}, {"measurement": "TGI", "setting": "ACHN renal", "value": "> 100", "unit": "µM"}, {"measurement": "TGI", "setting": "MDA-MB-435", "value": 62.1, "unit": "µM"}, {"measurement": "TGI", "setting": "EKVX NSCLC", "value": 83.9, "unit": "µM"}, {"measurement": "TGI", "setting": "COLO 205 colon", "value": 36.8, "unit": "µM"}, {"measurement": "TGI", "setting": "NCI-H522 lung", "value": 6.97, "unit": "µM"}, {"measurement": "TGI", "setting": "SN12C renal", "value": 45.7, "unit": "µM"}, {"measurement": "TGI", "setting": "SF-539 CNS", "value": 57.2, "unit": "µM"}, {"measurement": "TGI", "setting": "HCC-2998 colon", "value": 35.3, "unit": "µM"}, {"measurement": "TGI", "setting": "MCF7 breast", "value": 52.1, "unit": "µM"}, {"measurement": "TGI", "setting": "NCI-H23 lung", "value": 36.7, "unit": "µM"}, {"measurement": "TGI", "setting": "SR leukemia", "value": 27, "unit": "µM"}, {"measurement": "TGI", "setting": "LOX IMVI melanoma", "value": 25.2, "unit": "µM"}, {"measurement": "TGI", "setting": "CCRF-CEM leukemia", "value": 18.3, "unit": "µM"}, {"measurement": "TGI", "setting": "NCI/ADR-RES ovarian", "value": 67.7, "unit": "µM"}, {"measurement": "TGI", "setting": "SK-MEL-2 melanoma", "value": 64.4, "unit": "µM"}, {"measurement": "TGI", "setting": "HOP-92 NSCLC", "value": 33, "unit": "µM"}, {"measurement": "TGI", "setting": "NCI-H460 lung", "value": "> 100", "unit": "µM"}, {"measurement": "TGI", "setting": "HCT-116 colon", "value": 33.1, "unit": "µM"}, {"measurement": "TGI", "setting": "OVCAR-3 ovarian", "value": 39.7, "unit": "µM"}, {"measurement": "TGI", "setting": "MDA-MB-231 breast", "value": 68.8, "unit": "µM"}, {"measurement": "TGI", "setting": "BT-549 breast", "value": 41.5, "unit": "µM"}, {"measurement": "TGI", "setting": "HOP-62 NSCLC", "value": "> 100", "unit": "µM"}, {"measurement": "TGI", "setting": "NCI-H226 lung", "value": "> 100", "unit": "µM"}, {"measurement": "TGI", "setting": "OVCAR-5 ovarian", "value": 94.6, "unit": "µM"}, {"measurement": "TGI", "setting": "T-47D breast", "value": 41.4, "unit": "µM"}, {"measurement": "TGI", "setting": "A549 NSCLC", "value": "> 100", "unit": "µM"}, {"measurement": "TGI", "setting": "UO-31 renal", "value": 32.5, "unit": "µM"}, {"measurement": "TGI", "setting": "SF-295 CNS", "value": "> 100", "unit": "µM"}, {"measurement": "TGI", "setting": "786-0 renal", "value": 22.8, "unit": "µM"}, {"measurement": "TGI", "setting": "KM12 colon", "value": 50, "unit": "µM"}, {"measurement": "TGI", "setting": "UACC-62 melanoma", "value": "> 100", "unit": "µM"}, {"measurement": "TGI", "setting": "K-562 leukemia", "value": 56.8, "unit": "µM"}, {"measurement": "TGI", "setting": "HT29 colon", "value": 68.4, "unit": "µM"}]}]}
